Measured values: patent publication US20070203225A1, “METHOD OF INCREASING ENDOGENOUS ADIPONECTIN PRODUCTION AND LEPTIN PRODUCTION” (priority 2001, published 2007)
Where two headings read alike, the source gives them in different places.

Legend:
isolated rat adipocytes [1] = experiment: Leptin secretion/production by isolated cultured rat adipocytes (RIA); format: cell-based; settings: for increase of leptin secretion/production: Malate 2-5 mM, fumarate 5 mM, alone or in combination, low insulin and glucose, over control
Protocol: (§1) Cell isolation/preparation: Adipocytes are prepared from epididymal fat pads from male Sprague-Dawley rats weighing 300-600 g. Epididymal fat depots are resected from halothane anesthetized rats under aseptic conditions and adipocytes are isolated by collagenase digestion by the Rodbell method (Rodbell M. Metabolism of isolated fat cells. I. Effects of hormones on glucose metabolism and lipolysis. J Biol Chem. 1964; 239: 375-380), with minor modifications as previously described (Mueller W M, Gregoire F M, Stanhope K L, Mobbs C V, Mizuno T M, Warden C H, Stem J S, Havel P J. Evidence that glucose metabolism regulates leptin secretion from isolated adipocytes. Endocrinology 139: 551-558, 1998; Mueller W M, Stanhope K L, Gregoire F, Evans J L, Havel P J. Effects of metformin and vanadium on leptin secretion from cultured rat adipocytes. Obesity Res. 8: 530-539, 2000; Medina E A, Stanhope K L, Mizuno T M, Mobbs C V, Gregoire F, Hubbard N E, Erickson K L, Havel P J. Effects of tumor necrosis factor alpha on leptin secretion and gene expression: relationship to changes of glucose metabolism in isolated rat adipocytes. Int J Obes Relat Metab Disord. 23: 896-903, 1999.). The isolated adipocytes are then incubated for 30 minutes at 37 C before being plated and cultured on Matrigel-coated plates.
(§2) Adipocyte Culture: Adipocytes are maintained in culture anchored to a basement membrane matrix (Matrigel, Becton Dickinson, Franklin Lakes, N.J.) or collagen from Cohesion Technologies, (Palo Alto, Calif.). Although all in vitro systems have inherent advantages and disadvantages, advantages of this system compared with cultures containing free-floating adipocytes are that the matrix simulates their normal basement membrane attachment and that the cells are maintained in close proximity to each other, allowing direct cell to cell contact. Together the cell contact and basement membrane attachment help to maintain differentiation, since adipocytes have a strong tendency to dedifferentiate in long-term (>24 h) culture. In addition, the matrix and the small amount of serum in the media both contain growth factors, which are also likely to help in maintaining cell differentiation. Furthermore, the adipocytes in this system are not exposed to toxic levels of oxygen at the interface of the media and the incubator atmosphere, as opposed to free-floating adipocytes which aggregate at the surface of the media. An advantage of the system over those containing minced adipose tissue is that all of the cells in the culture are equally exposed to the nutrients and the oxygen dissolved in the media. Thus, although clearly different from the in vivo situation, this system provides a more physiological environment than most systems for maintaining adipocytes in long-term culture.
(§3) In culturing each suspension, Matrigel is first thawed on ice to a liquid and uniformly applied to the surface of culture dishes (300 μl Matrigel/35 mm well). After the incubation period, 150 μl of the adipocyte suspension (2:1 ratio of packed cells to media) are plated on the Matrigel or collagen matrix. Adipocytes from each suspension are thoroughly mixed with a transfer pipette before plating to insure that a similar number adipocytes with a similar size distribution are added to the control and experimental wells for each suspension. The warmth of the added cells and buffer causes the Matrigel to gel around the adipocytes, or the neutralization of the acidic pH of the collagen solution to 7.0 solidifies the collagen, and both of these techniques effectively anchor the adipocytes to the culture dish. After a 30 minute incubation at 37° C., 2 ml of warm culture medium is added. The cells are maintained in an incubator at 37° C. for 96 hours with 6% CO2. Aliquots of adipocytes from each animal are divided into wells, with the different concentrations of insulin or other agents to be tested. In each plate an appropriate control well contains adipocytes from the same animal. […]

isolated rat adipocytes [2] = experiment: Glucose oxidation: incorporation of 14C-glucose into CO2 by isolated rat adipocytes; format: cell-based
Protocol: Substrate Oxidation: Oxidation is measured using a modification of the method of Rodbell (Rodbell, 1964) and a modification of the cell culture system described by Bottcher and Furst (Bottcher, 1996). Briefly, adipocytes are isolated, counted and sized as previously described. Adipocytes are plated as described except they are placed in a sterile 20 ml scintillation vial instead of a well. Two ml of treatment media containing [U-^14C]-substrate (0.3 uCi/ml; glucose, fatty acids, malate, fumarate, pyruvate) is added to the vials. The vials are filled with 95% O2-5% CO2 gas and capped with rubber stoppers fitted with a hanging center well. Each well contains a 2×8 cm strip of Whatman No. 1 paper. Vials are maintained at 37° C. for 48 hr. After 48 hr, a sample of media is removed from each vial using a 4 inch, 23 gauge needle. Using another syringe and 23 gauge needle, 200 ul of sodium benzethonium is placed onto the paper strip and hanging well to capture CO2. Concentrated sulfuric acid is added to the vial in order to lyse cells and liberate all CO2 from the collagen matrix. After 24 hours, the hanging well and paper are transferred to another vial containing scintillation fluid and counted. The data are expressed as % DPM recovered as CO2 of the total DPM remaining in the media at 48 hours and as micromoles of substrate oxidized over time.

isolated rat adipocytes [3] = settings: citrate, cited from earlier work
isolated rat adipocytes [4] = experiment: Glucose utilization (uptake) by isolated cultured rat adipocytes; format: cell-based; settings: Carnitine 20 mM
Protocol: as §1, §2, §3

isolated rat adipocytes [5] = experiment: Lactate production and proportion of glucose anaerobically metabolized to lactate in isolated cultured rat adipocytes; format: cell-based; settings: Carnitine 20 mM
Protocol: as §1, §2, §3

[6] = test system: isolated, cultured adipocytes; experiment: Fatty acid oxidation: incorporation of 14C-labeled oleate into CO2 by cultured adipocytes; format: cell-based, rat
Protocol: Experiments were also carried out to examine fatty acid oxidation by measuring the incorporation of ^14C-labeled oleate into CO2. […] Therefore, to further examine the potential role of fatty acid oxidation adipocytes were incubated with L-carnitine, a cofactor of the rate-limiting step for fatty acid transport into the mitochondria via carnitine-palmitoyl-tranferase (CPT).
Substrate Oxidation: Oxidation is measured using a modification of the method of Rodbell (Rodbell, 1964) and a modification of the cell culture system described by Bottcher and Furst (Bottcher, 1996). Briefly, adipocytes are isolated, counted and sized as previously described. Adipocytes are plated as described except they are placed in a sterile 20 ml scintillation vial instead of a well. Two ml of treatment media containing [U-^14C]-substrate (0.3 uCi/ml; glucose, fatty acids, malate, fumarate, pyruvate) is added to the vials. The vials are filled with 95% O2-5% CO2 gas and capped with rubber stoppers fitted with a hanging center well. Each well contains a 2×8 cm strip of Whatman No. 1 paper. Vials are maintained at 37° C. for 48 hr. […] After 24 hours, the hanging well and paper are transferred to another vial containing scintillation fluid and counted. The data are expressed as % DPM recovered as CO2 of the total DPM remaining in the media at 48 hours and as micromoles of substrate oxidized over time.

isolated rat adipocytes [7] = experiment: Incorporation of glucose carbon into triglyceride in cultured adipocytes; format: cell-based; settings: Carnitine 20 mM
Protocol: Incorporation of Glucose Carbon into Triglyceride: To measure glucose incorporation into triglyceride, cultures are exposed to media containing 0.01 uCi/ml of ^14C-glucose. After 96 hr, media and extracellular lipid is removed from the well and methanol added. Then scrape the collagen-cell matrix from the well and transfer into a 50 ml glass tube. Rinse the well and scrape again in methanol to assure complete transfer of cells. Total triglycerides will be extracted using the Folch method (Folch, 1957). An aliquot of the lipid extract will be placed into vials containing scintillation fluid then radioactivity will be measured.
The first measurement is used to calculate the amount of glucose incorporated into triglycerides. Another aliquot of the lipid extract is placed into pre-weighed aluminum pans to determine the total amount of triglyceride per well. The remaining lipid is saponified and acidified to separate the glycerol and fatty acids. An aliquot of the lipid extract is placed into vials containing scintillation fluid and counted. This second count represents the ^14C-glucose incorporation into fatty acids. By subtraction, the amount that was incorporated into triglyceride though glycerol is also determined. Glucose incorporation into triglyceride and into the fatty acid portion of the triglyceride are calculated by multiplying disintegration per min by total ug of glucose/well over the total DPM/well.

## CCCCCCCC/C=C\CCCCCCCC(=O)O [oleate, oleic acid]
Isolated rat adipocytes [1]; oleate/oleic acid 2 mM, low glucose
  effect on leptin secretion (in words): increased
Isolated rat adipocytes [1]; oleate/oleic acid 2 mM, low glucose, listed as oleic acid
  effect on leptin secretion (in words): increases
Isolated rat adipocytes [2]; Rattus norvegicus, Adipocyte, oleate 2 mM, n=7
  inhibition at 2000 µM: 30%
Isolated rat adipocytes [2]; oleic acid 2 mM, low glucose
  effect on glucose oxidation (in words): inhibits

## O=C(O)CC(O)(CC(=O)O)C(=O)O [Citrate]
Isolated rat adipocytes [3]; low glucose and insulin concentration
  effect on leptin secretion (in words): stimulates
Isolated rat adipocytes [3]; presence of high insulin and glucose
  effect on leptin secretion (in words): does not affect

## O=C(O)CC(O)C(=O)O (stereo not drawn) [Malate]
Isolated rat adipocytes [1]
  increase of leptin secretion/production: 20%
Isolated rat adipocytes [1]; listed as malate
  increase of leptin secretion/production: +20%

## C[N+](C)(C)C[C@H](O)CC(=O)[O-] [Carnitine, L-carnitine]
Isolated rat adipocytes [4]
  effect on glucose utilization (in words): inhibited
Isolated rat adipocytes [5]
  effect on proportion of glucose metabolized to lactate (in words): increased
Isolated rat adipocytes [1]; Carnitine 20 mM, n=12
  effect on leptin secretion (in words): modestly increased
Isolated rat adipocytes [2]; L-carnitine
  effect on glucose oxidation (in words): inhibited
[6]; Carnitine 20 mM, n=7, percent of control
  increase of fatty acid oxidation: 50%
[6]; L-carnitine
  effect on fatty acid oxidation (in words): increased
Isolated rat adipocytes [7]
  effect on incorporation of labeled glucose into TG/lipid (in words): inhibited
